Key:
[1] = Metabolic stability in human liver microsomes; format: in vitro ADME; settings: for half-life at 2 μM: human liver microsomes 0.5 mg/mL, test compound 2 μM, sampling 0-60 min, read-out: Half life t1/2 (min) in human liver microsomes; for metabolic stability in the liver microsomes compared with non-deuterated control defactinib: human liver microsomes, result in words
Protocol: (§1) Step 1. The mother solution was prepared according to the component ratio in Table 1 below:
(§2) Step 2: Two experiments were carried out as follows:
(§3) A) Adding reduced coenzyme II (NADPH): 20 mg/mL liver microsomes (10 μL) and 10 mM NADPH (40 μL) were added into the incubation experiment. The final concentrations of liver microsomes and NADPH were 0.5 mg/mL and 1 mM, respectively.
(§4) B) Without NADPH: 20 mg/mL liver microsomes (10 μL) and high pure water (40 μL) were added into the incubation experiment. The final concentration of liver microsomes was 0.5 mg/mL.
(§5) Step 3: The reaction began after adding 200 μM positive control (4 μL) or test compound. The positive control was verapamil in this experiment. The final concentration of the test compound was 2 μM.
(§6) Step 4: At the time points 0 min, 15 min, 30 min, 45 min, and 60 min, 50 μL solution was sampled from each reaction solution. Acetonitrile (4× volumes of reaction solution) and IS (100 nM alprazolam, 200 nM labetalol, 200 nM caffeine, and 2 μM ketoprofen) were added to the reaction solution. The sample was centrifuged at 3220 g gravity for 40 min. 100 μL high pure water was added into 100 μL supernatant and analyzed by LC-MS/MS.
(§7) Step 5: Data analysis: the peak area was determined from the extracted ion chromatogram. The slope value k was determined by linear regression of the natural logarithm obtained from the curve between the residual percentage of parent drug and the incubation time.
(§8) In vitro half-life (In vitro t1/2) was determined by the slope value: in vitro t1/2=−([…]/k In vitro intrinsic clearance (in vitro CLint, in […]) was converted from in vitro half-life t1/2 (min) using the following equation (mean value of repeated determinations): […]
(§9) Scale up intrinsic clearance (Scale up CLint, in mL/min/kg) was converted from in vitro half-life t1/2 (min) using the following equation (mean value of repeated determinations): […]

[2] = Pharmacokinetic experiment in rats (PO, 10 mpk); format: in vivo; settings: Sprague-Dawley (SD), rat, 10 mg/kg, male SD rats, PO by gavage, plasma; for AUC: read-out: Exposure dose AUC; for half-life: read-out: Half life t1/2 (converted); for Tmax: read-out: Peak hours tmax; for Cmax: read-out: Peak plasma concentration Cmax(ng/mL); for MRT inf: read-out: Retention time MRTinf
Protocol: Appropriate amount of drug (equivalent to 10 mg of the original drug) was accurately weighed, to which was first added 0.25 ml DMA to dissolve drug, and 0.5% CMC-Na was slowly added to 5 ml, then mixed well with ultrasonic and vortex. 0.2 ml final solution prepared was taken out and stored at −20° C. for concentration determination. Three healthy adult male SD rats (180-250 g) received drugs at 5 ml/kg by gavage after fasting overnight (free drinking water); 0.1 ml blood was collected from retroorbital venous plexus before administration and 0.5, 1, 2, 4, 6, 8, 12 and 24 h after administration, and plasma was separated by centrifugation at 4° C. for 5 min and stored at −20° C. for use. Then, LC/MS/MS method was used to determine the concentration of compounds in plasma.

[3] = Metabolic stability in rat liver microsomes; format: in vitro ADME; settings: for half-life at 2 μM: rat liver microsomes 0.5 mg/mL, test compound 2 μM, sampling 0-60 min, read-out: Half life t1/2 (min) in rat liver microsomes; for metabolic stability in the liver microsomes compared with non-deuterated control defactinib: rat liver microsomes, result in words
Protocol: as §1, §2, §3, §4, §5, §6, §7, §8, §9

[4] = Metabolic stability in mouse liver microsomes; format: in vitro ADME; settings: for half-life at 2 μM: mouse liver microsomes 0.5 mg/mL, test compound 2 μM, sampling 0-60 min, read-out: Half life t1/2 (min) in mouse liver microsomes; for metabolic stability in the liver microsomes compared with non-deuterated control defactinib: mouse liver microsomes, result in words
Protocol: as §1, §2, §3, §4, §5, §6, §7, §8, §9

[2H]C([2H])([2H])NC(=O)c1ccc(Nc2ncc(C(F)(F)F)c(NCc3nccnc3N(C)S(C)(=O)=O)n2)cc1 [Compound 1, N-(trideuteromethyl)-4-((4-(((3-(N-methylmethylsulfonyl)pyrazin-2-yl)methyl)amino)-5-(trifluoromethyl)pyrimidin-2-yl)amino)benzamide]
half-life at 2 μM [1]: 894 min | metabolic stability in the liver microsomes compared with non-deuterated control defactinib [1]: significantly improved | AUC [2]: 2840 ng·h/mL | half-life [2]: 1.74 h | Tmax [2]: 0.67 h | Cmax [2]: 1220 ng/mL | MRT inf [2]: 2.03 h | half-life at 2 μM [3]: 151 min | metabolic stability in the liver microsomes compared with non-deuterated control defactinib [3]: significantly improved | half-life at 2 μM [4]: 87 min | metabolic stability in the liver microsomes compared with non-deuterated control defactinib [4]: significantly improved

[2H]C([2H])([2H])NC(=O)c1ccc(Nc2ncc(C(F)(F)F)c(NCc3nccnc3N(C([2H])([2H])[2H])S(C)(=O)=O)n2)cc1 [Compound 3, N-(trideuteromethyl)-4-((4-(((3-(N-deuteromethylmethanesulfonamido)pyrazin-2-yl)methyl)amino)-5-(trifluoromethyl)pyrimidin-2-yl)amino)benzamide]
half-life at 2 μM [1]: 781 min | metabolic stability in the liver microsomes compared with non-deuterated control defactinib [1]: significantly improved | AUC [2]: 3740 ng·h/mL | half-life [2]: 2.46 h | Tmax [2]: 1.67 h | Cmax [2]: 971 ng/mL | MRT inf [2]: 3.35 h | half-life at 2 μM [3]: 370 min | metabolic stability in the liver microsomes compared with non-deuterated control defactinib [3]: significantly improved | half-life at 2 μM [4]: 406 min | metabolic stability in the liver microsomes compared with non-deuterated control defactinib [4]: significantly improved

[2H]C([2H])([2H])N(c1nccnc1CNc1nc(Nc2ccc(C(=O)NC)cc2)ncc1C(F)(F)F)S(C)(=O)=O [Compound 2, N-methyl-4-((4-(((3-(N-deuteromethylmethanesulfonamido)pyrazin-2-yl)methyl)amino)-5-(trifluoromethyl)pyrimidin-2-yl)amino)benzamide]
half-life at 2 μM [1]: 100 min | metabolic stability in the liver microsomes compared with non-deuterated control defactinib [1]: slightly worse | half-life at 2 μM [3]: 47 min | metabolic stability in the liver microsomes compared with non-deuterated control defactinib [3]: slightly worse | half-life at 2 μM [4]: 70 min

CNC(=O)c1ccc(Nc2ncc(C(F)(F)F)c(NCc3nccnc3N(C)S(C)(=O)=O)n2)cc1 [Defactinib, N-methyl-4-((4-(((3-(N-methylmethylsulfonyl)pyrazin-2-yl)methyl)amino)-5-(trifluoromethyl)pyrimidin-2-yl)amino)benzamide]
half-life at 2 μM [1]: 260 min | AUC [2]: 1650 ng·h/mL | half-life [2]: 1.46 h | Tmax [2]: 0.67 h | Cmax [2]: 643 ng/mL | MRT inf [2]: 2.4 h | half-life at 2 μM [3]: 94 min | half-life at 2 μM [4]: 63 min

Reference: patent US11891379B2, “Deuterated Defactinib compound and use thereof” (HINOVA PHARMACEUTICALS INC., priority 2018, dated 2024)
